Like-named read-outs stand apart in the source and are kept apart here. Numbered stars: 1 amine (or outer) side, 2 acyl side, 3 side chain; on linkers, the order of the positions; unused ones are H or OH. Bridge positions count the residues as written; N and C are the ends. Square brackets hold non-standard residues; d marks the D form. Peptide text beside a SMILES is read from it. * marks the point of attachment. Trp(βS-Me,7-OMe) = COc1cccc2c([C@H](C)[C@H](N)C(=O)O)c[nH]c12; X56 = Cc1cccc2c([C@H](C)[C@H](N[*:1])C(=O)[*:2])c[nH]c12; Trp(1-CH2COOH) = N[C@@H](Cc1cn(CC(=O)O)c2ccccc12)C(=O)O; X44 = NC(=O)c1ccc([C@@H](O)[C@H](N[*:1])C(=O)[*:2])cc1; Phe(4-SO2NH2) = N[C@@H](Cc1ccc(S(N)(=O)=O)cc1)C(=O)O; Trp(7-CN) = N#Cc1cccc2c(C[C@H](N)C(=O)O)c[nH]c12; Trp(7-Cl) = N[C@@H](Cc1c[nH]c2c(Cl)cccc12)C(=O)O; X62 = O=C(O)c1ccc(C[C@H](N[*:1])C(=O)[*:2])cc1Cl; Phe(4-CONH2) = NC(=O)c1ccc(C[C@H](N)C(=O)O)cc1; Phe(4-COOH) = N[C@@H](Cc1ccc(C(=O)O)cc1)C(=O)O; X59 = O=C([C@H](Cc1[nH]nc2ccccc12)N[*:1])[*:2]; Pip(5R-OH) = O=C(O)[C@@H]1CC[C@@H](O)CN1; X1 = O=C([C@@H]1CC[C@H](N[*:1])C1)[*:2]; X53 = O=C([C@H](Cc1ccncc1F)N[*:1])[*:2]; Pip(4-aza) = O=C(O)[C@@H]1CNCCN1; 4Pal = N[C@@H](Cc1ccncc1)C(=O)O; NMeE = CN[C@@H](CCC(=O)O)C(=O)O; dHyp = O=C(O)[C@H]1C[C@H](O)CN1; Pip = O=C(O)[C@@H]1CCCCN1; αMeS = C[C@](N)(CO)C(=O)O; Carboxymethyl = O=C(O)C*; Nle = CCCC[C@H](N)C(=O)O; Sar = CNCC(=O)O
How the values were obtained:
[1] = biological target: T1, human soluble TNFR1 (sTNFR1) (Homo sapiens, UniProt P19438); experiment: Human sTNFR1-peptide displacement assay (LanthaScreen Eu TR-FRET binding assay)
T1 construct: made in house; host or cells: Sf21 (baculovirus)
T1 sequence (P19438 with tags, fused parts or gaps): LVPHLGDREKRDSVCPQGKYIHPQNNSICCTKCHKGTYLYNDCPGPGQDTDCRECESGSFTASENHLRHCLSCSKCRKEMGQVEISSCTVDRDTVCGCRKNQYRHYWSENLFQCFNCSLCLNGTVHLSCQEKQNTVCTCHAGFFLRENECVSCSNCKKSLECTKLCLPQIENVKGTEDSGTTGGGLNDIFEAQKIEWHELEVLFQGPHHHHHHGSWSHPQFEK
Procedure, shortened: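 Readout is the 665/615 nm TR-FRET ratio (Eu anti-His donor, streptavidin-Alexa647 acceptor), normalized to DMSO and saturating displacer, fit by Morrison-based five-parameter logistic for Kd^app. His-tagged sTNFR1 (1-211) prebound to 100 nM biotinylated peptide SEQ ID NO.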

[2] = biological target: T2, TNFα-induced NF-κB signal transduction pathway (TNFR1 signaling) in THP-1 cells (Homo sapiens, UniProt P19438); experiment: THP-1 Lucia NF-κB reporter cell assay, inhibition of TNFα-induced NF-κB signaling; assay type: cell-based; conditions: THP-1 NF-κB Lucia reporter cells, 10 ng/mL TNFα, 16-18 h, secreted luciferase; read-out: THP-1 IC50
T2 sequence (P19438 30-455): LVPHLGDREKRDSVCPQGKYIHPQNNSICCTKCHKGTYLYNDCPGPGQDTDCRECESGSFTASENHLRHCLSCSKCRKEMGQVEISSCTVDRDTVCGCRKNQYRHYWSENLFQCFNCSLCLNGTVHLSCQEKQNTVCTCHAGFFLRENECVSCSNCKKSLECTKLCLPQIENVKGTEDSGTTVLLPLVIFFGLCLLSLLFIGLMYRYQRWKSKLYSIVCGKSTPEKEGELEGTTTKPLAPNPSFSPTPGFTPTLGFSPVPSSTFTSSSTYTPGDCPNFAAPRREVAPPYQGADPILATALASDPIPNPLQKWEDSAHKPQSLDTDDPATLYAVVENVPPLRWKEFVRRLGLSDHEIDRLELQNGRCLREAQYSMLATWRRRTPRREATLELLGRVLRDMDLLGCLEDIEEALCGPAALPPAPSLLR
Procedure, shortened: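 Inhibition of TNFR1-driven NF-κB activation was measured as luminescence of secreted reporter luciferase following overnight (16-18 h) stimulation with 10 ng/mL TNFα.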

For `CCCC[C@@H]1NC(=O)[C@@H]2CC[C@@H](C2)NC(=O)[C@H]([C@@H](C)c2c[nH]c3c(OC)cccc23)NC(=O)CN(C)C(=O)[C@H](Cc2ccc(O)cc2)NC(=O)[C@H](Cc2ccc(C(=O)O)cc2)NC(=O)[C@](C)(CO)NC(=O)[C@H](Cc2c[nH]c3c(Cl)cccc23)NC(=O)[C@H](Cc2ccncc2)NC(=O)[C@H](CC(N)=O)NC(=O)[C@H](CCC(=O)O)N(C)C(=O)[C@H](Cc2c[nH]c3ccccc23)NC(=O)[C@@H]2CNCCN2C(=O)[C@H](Cc2ccncc2F)NC1=O` [SEQ ID NO. 201] (cyclo([4Pal][Trp(7-Cl)][αMeS][Phe(4-COOH)]Y[Sar][Trp(βS-Me,7-OMe)][X1][Nle][X53][Pip(4-aza)]W[NMeE]N)), the Kd [1] was 0.21 nM and the IC50 [2] was 0.9 nM.

`CCCC[C@@H]1NC(=O)[C@@H]2CC[C@@H](C2)NC(=O)[C@H]([C@@H](C)c2c[nH]c3c(OC)cccc23)NC(=O)CN(C)C(=O)[C@H](Cc2ccc(C(=O)O)cc2)NC(=O)[C@H](Cc2ccc(S(N)(=O)=O)cc2)NC(=O)[C@](C)(CO)NC(=O)[C@H](Cc2c[nH]c3c(C#N)cccc23)NC(=O)[C@H](Cc2ccc(C(=O)O)cc2)NC(=O)[C@H](CC(N)=O)NC(=O)[C@H]2C[C@H](OCC(=O)O)CN2C(=O)[C@H](Cc2[nH]nc3ccccc23)NC(=O)[C@@H]2CC[C@@H](O)CN2C(=O)[C@H](Cc2ccncc2)NC1=O` [SEQ ID NO. 204] (cyclo([4Pal][Pip(5R-OH)][X59][dHyp](Carboxymethyl)N[Phe(4-COOH)][Trp(7-CN)][αMeS][Phe(4-SO2NH2)][Phe(4-COOH)][Sar][Trp(βS-Me,7-OMe)][X1][Nle])) gave a Kd [1] of 0.11 nM and an IC50 [2] of 0.8 nM.

`CCCC[C@@H]1NC(=O)[C@@H]2CC[C@@H](C2)NC(=O)[C@H]([C@@H](C)c2c[nH]c3c(OC)cccc23)NC(=O)CN(C)C(=O)[C@H](Cc2ccc(C(=O)O)c(Cl)c2)NC(=O)[C@H](Cc2ccc(C(N)=O)cc2)NC(=O)[C@](C)(CO)NC(=O)[C@H](Cc2c[nH]c3c(C#N)cccc23)NC(=O)[C@H](Cc2ccc(C(=O)O)c(Cl)c2)NC(=O)[C@H](CC(N)=O)NC(=O)[C@H]2C[C@H](O)CN2C(=O)[C@H](Cc2c[nH]c3ccccc23)NC(=O)[C@@H]2CC[C@@H](O)CN2C(=O)[C@H](Cc2ccncc2)NC1=O` [SEQ ID NO. 207] (cyclo([4Pal][Pip(5R-OH)]W[dHyp]N[X62][Trp(7-CN)][αMeS][Phe(4-CONH2)][X62][Sar][Trp(βS-Me,7-OMe)][X1][Nle])) showed a Kd [1] of 0.12 nM and an IC50 [2] of 1 nM.

`CCCC[C@@H]1NC(=O)CSC[C@@H](C(N)=O)NC(=O)[C@H]([C@@H](C)c2c[nH]c3c(C)cccc23)NC(=O)CN(C)C(=O)[C@H](Cc2ccc(O)cc2)NC(=O)[C@H](Cc2ccc(C(=O)O)cc2)NC(=O)[C@](C)(CO)NC(=O)[C@H](Cc2c[nH]c3c(Cl)cccc23)NC(=O)[C@H](Cc2ccncc2)NC(=O)[C@H](CC(N)=O)NC(=O)[C@H](CCC(=O)O)N(C)C(=O)[C@H](Cc2c[nH]c3ccccc23)NC(=O)[C@@H]2CCCCN2C(=O)[C@H](Cc2ccncc2)NC1=O` [SEQ ID NO. 208] ({CH2CO}-[Nle][4Pal][Pip]W[NMeE]N[4Pal][Trp(7-Cl)][αMeS][Phe(4-COOH)]Y[Sar][X56]C-NH2; thioether N-14) was tested, and the IC50 [1] was 1.31 nM and the IC50 [2] was 4 nM.

Compound `CCCC[C@@H]1NC(=O)[C@@H]2CC[C@@H](C2)NC(=O)[C@H]([C@@H](C)c2c[nH]c3c(OC)cccc23)NC(=O)CN(C)C(=O)[C@H]([C@H](O)c2ccc(C(N)=O)cc2)NC(=O)[C@H](Cc2ccc(S(N)(=O)=O)cc2)NC(=O)[C@](C)(CO)NC(=O)[C@H](Cc2c[nH]c3c(C#N)cccc23)NC(=O)[C@H](Cc2ccc(C(=O)O)cc2)NC(=O)[C@H](CC(N)=O)NC(=O)[C@H]2C[C@H](O)CN2C(=O)[C@H](Cc2cn(CC(=O)O)c3ccccc23)NC(=O)[C@@H]2CC[C@@H](O)CN2C(=O)[C@H](Cc2ccncc2)NC1=O` [SEQ ID NO. 210] (cyclo([4Pal][Pip(5R-OH)][Trp(1-CH2COOH)][dHyp]N[Phe(4-COOH)][Trp(7-CN)][αMeS][Phe(4-SO2NH2)][X44][Sar][Trp(βS-Me,7-OMe)][X1][Nle])) has a Kd ([1]; displacement of biotinylated peptide SEQ ID NO. 1 from sTNFR1, 20 point titration, 5-parameter fit based on Morrison equation (tight binding), read-out: TR-FRET Kd^app) of 0.12 nM and an IC50 [2] of 0.5 nM.
